Experimental data from patent US20060223837A1 (priority 2005, published 2006).

Key:
human VR1 [1] = target: T1, human VR1 (Homo sapiens, UniProt Q8NER1); experiment: Human VR1 functional assay (FLIPR intracellular Ca2+); assay type: cell-based; details: for IC50: antagonism of capsaicin-induced Ca2+ increase, read-out: h IC50; for % Response Relative to EC80 of Capsaicin (12 μM) / Emax at 12 µM: agonist response; for Emax at 12 µM: read-out: % Response Relative to EC80 of Capsaicin (12 μM); for inhibition at 10 µM: read-out: h % I (10 μM); for inhibition at 5 µM: read-out: h % I (5 μM)
T1 construct: expressed in transfected cells; host or cells: HEK293
T1 sequence (Q8NER1 whole entry): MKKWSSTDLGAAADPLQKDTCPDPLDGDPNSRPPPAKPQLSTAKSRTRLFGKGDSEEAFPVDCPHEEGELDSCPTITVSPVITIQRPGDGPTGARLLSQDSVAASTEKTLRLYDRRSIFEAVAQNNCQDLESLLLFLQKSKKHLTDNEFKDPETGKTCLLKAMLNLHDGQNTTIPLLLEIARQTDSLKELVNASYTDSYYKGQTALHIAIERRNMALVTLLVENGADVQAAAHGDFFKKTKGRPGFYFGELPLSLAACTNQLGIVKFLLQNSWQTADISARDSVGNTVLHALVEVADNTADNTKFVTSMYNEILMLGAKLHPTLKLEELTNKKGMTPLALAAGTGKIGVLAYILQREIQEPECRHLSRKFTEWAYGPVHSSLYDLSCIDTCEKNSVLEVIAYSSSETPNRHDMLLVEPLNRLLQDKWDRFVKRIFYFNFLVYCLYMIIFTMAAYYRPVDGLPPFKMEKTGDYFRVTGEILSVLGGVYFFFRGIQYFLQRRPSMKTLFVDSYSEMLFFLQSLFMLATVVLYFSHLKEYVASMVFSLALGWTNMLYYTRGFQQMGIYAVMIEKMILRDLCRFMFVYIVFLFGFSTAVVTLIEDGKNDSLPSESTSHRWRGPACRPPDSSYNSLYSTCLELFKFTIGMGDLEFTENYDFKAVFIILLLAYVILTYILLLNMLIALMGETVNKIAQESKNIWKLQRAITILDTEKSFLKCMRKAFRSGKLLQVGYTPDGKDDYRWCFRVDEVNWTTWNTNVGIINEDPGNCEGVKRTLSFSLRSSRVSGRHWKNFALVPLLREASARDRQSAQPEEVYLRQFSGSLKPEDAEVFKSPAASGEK
Method in brief: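 Read-out was Ca2+-dye fluorescence by FLIPR: compounds at varying concentrations were added to dye-loaded human VR1 HEK293 cells and monitored 5 min before capsaicin addition ([…], approx. EC80). Dose-response data, averaged over four wells, gave EC50 or IC50.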

human VR1 [2] = target: T1, human VR1; experiment: Human VR1 [3H]RTX binding assay; details: for inhibition at 1 µM / h Binding % I (1 μM): inhibition of [3H]RTX binding at 1 μM; for inhibition at 1 µM: read-out: h Binding % I (1 μM); for Ki: [3H]RTX binding, HEK293 membranes
Description: Compounds of the present invention were tested for their ability to inhibit the binding of tritiated resiniferatoxin ([^3H] RTX) to human VR1 receptors in a [^3H] RTX binding assay, as previously described (Zhang, Sui-Po. Improved ligand binding assays for vanilloid receptors. PCT Int. Appl. (2002), WO 0233411 A1 20020425 AN 2002:315209; Grant, Elfrida R., Dubin, Adrienne E., Zhang, Sui-Po, Zivin, Robert A., Zhong, Zhong Simultaneous intracellular calcium and sodium flux imaging in human VR1-transfected human embryonic kidney cells: a method to resolve ionic dependence of VR1-mediated cell death. J. Pharmacol. Exp. ther., 2002, 300(1), 9-17.) HEK293 cells were transfected with human VR1 and washed with Hank's balanced Salt Solution, dissociated with cell dissociation buffer (Sigma), and then centrifuged at 1000× g for 5 min. Cell pellets were homogenized in cold 20 mM HEPES buffer (pH 7.4), containing 5.8 mM NaCl, 320 mM sucrose, 2 mM MgCl2, 0.75 CaCl2 and 5 mM KCl and centrifuged at 1000× g for 15 min. The resultant supernate was then centrifuged at 40000× g for 15 min. The pelleted membranes were stored in a freezer at −80 C.
Approximately 120 μg protein/ml from membranes were incubated with indicated concentrations of [^3H]RTX in 0.5 ml of the HEPES buffer (pH 7.4) containing 0.25 mg/mL fatty acid-free bovine serum albumin at 37 C for 60 min. After cooling the reaction mixture to 4 C, 0.1 mg (x-acid glycoprotein was added to each sample, which was incubated at 4 C for 15 min and then centrifuged at 18500× g for 15 min. The tip of the microcentrifuge tube containing the pellet was cut off. Bound radioactivity was quantified by scintillation counting. Non-specific binding was assessed in the presence of 200 nM unlabeled resiniferatoxin.
Data were calculated according to the equation: % inhibtion=(total binding−binding)*100/(total binding−non specific binding).
Ki values were calculated based on an average of duplicate measurements using a GraphPad Prism program.

[3] = inhibition of capsaicin response

| Compound | IC50 (human VR1 [1]) [nM] | inhibition at 1 µM (human VR1 [2]) [%] | h Binding % I (1 μM) (human VR1 [2]) [%] | Ki (human VR1 [2]) [nM] | further results |
| --- | --- | --- | --- | --- | --- |
| CC(=O)Nc1cccc(-c2ccc(NC(=O)CCc3ccc(C(F)(F)F)cc3)cc2)c1 [Cpd 75] | – | – | 6 | – | % Response Relative to EC80 of Capsaicin (12 μM) (human VR1 [1]): 82% |
| CC(C)(C)c1ccc(CCC(=O)Nc2ccc(-c3cccc(C(N)=O)c3)cc2CO)cc1 [Cpd 69] | – | – | 1 | – | h % I (10 μM) (human VR1 [1]; [3]): 6% |
| CC(C)(C)c1ccc(CCC(=O)Nc2ccc(-c3cccc(O)c3)cc2F)cc1 [Cpd 60] | – | 52 | – | 541 | Emax at 12 µM (human VR1 [1]): 84% |
| CC(C)(C)OC(=O)Nc1cccc(-c2ccc(NC(=O)CCc3ccc(C(C)(C)C)cc3)cc2)c1 [Cpd 41] | – | 78.8 | – | 109 | Emax at 12 µM (human VR1 [1]): 43%; inhibition at 10 µM (human VR1 [1]; [3]): 30% |
| CC(C)(C)c1ccc(CCC(=O)Nc2ccc(-c3ccc(O)cc3)cc2)cc1 [Cpd 3] | – | 90 | – | 51 | Emax at 12 µM (human VR1 [1]): 65%; inhibition at 10 µM (human VR1 [1]; [3]): 44% |
| CC(=O)Nc1cccc(-c2ccc(NC(=O)CCc3ccc(C(C)(C)C)cc3)c(CO)c2)c1 [Cpd 70] | – | – | 1 | – | h % I (10 μM) (human VR1 [1]; [3]): 7% |
| NC(=O)c1cccc(-c2ccc(NC(=O)CCc3ccc(C(F)(F)F)cc3)cc2)c1 [Cpd 48] | – | – | 2.1 | – | % Response Relative to EC80 of Capsaicin (12 μM) (human VR1 [1]): 57% |
| CN(C)C(=O)c1cccc(-c2cccc(NC(=O)CCc3ccc(C(C)(C)C)cc3)c2)c1 [Cpd 34] | – | – | 17 | – | h % I (10 μM) (human VR1 [1]; [3]): 14% |
| Cc1cc(NC(=O)CCc2ccc(C(C)(C)C)cc2)ccc1-c1cccc(O)c1 [Cpd 59, 3-(4-tert-butyl-phenyl)-N-(3′-hydroxy-2-methyl-biphenyl-4-yl)-propionamide] | 490 | 103 | – | 10.7 | inhibition at 10 µM (human VR1 [1]; [3]): 101% |
| CC(C)(C)c1ccc(CCC(=O)Nc2ccccc2-c2cccc(O)c2)cc1 [Cpd 4] | – | – | 1 | – | h % I (10 μM) (human VR1 [1]; [3]): 35% |

Further lines, with some results ahead:

| IC50 (human VR1 [1]) [nM] | inhibition at 1 µM (human VR1 [2]) [%] | h Binding % I (1 μM) (human VR1 [2]) [%] | Ki (human VR1 [2]) [nM] | Compound | further results |
| --- | --- | --- | --- | --- | --- |
| 3950 | 1 | – | – | CC(C)(C)c1ccc(CCC(=O)Nc2ccccc2-c2cccnc2)cc1 [Cpd 105] | – |
| – | – | 45 | – | O=C(CCc1ccc(C(F)(F)F)cc1)Nc1ccc(-c2cccnc2)cc1 [Cpd 142] | % Response Relative to EC80 of Capsaicin (12 μM) (human VR1 [1]): 78% |
| – | 73 | – | 180 | CC(C)(C)c1ccc(CCC(=O)Nc2cccc(-c3ccncc3)c2)cc1 [Cpd 104] | Emax at 12 µM (human VR1 [1]): 62% |
| – | – | – | 329 | O=C(CCc1ccc(C(F)(F)F)cc1)Nc1cnc(-c2ccncc2)c(C(F)(F)F)c1 [Cpd 255] | inhibition at 5 µM (human VR1 [1]; [3]): 100% |
| – | – | 34 | – | CC(C)(C)c1ccc(CCC(=O)Nc2ccc(-c3ncccc3O)cc2)cc1 [Cpd 115] | % Response Relative to EC80 of Capsaicin (12 μM) (human VR1 [1]): 58% |
| 30.1 | – | – | 212 | CC(C)(C)c1ccc(CCC(=O)Nc2cnc(-n3ccnc3)c(C(F)(F)F)c2)cc1 [Cpd 202, 3-(4-tert-Butyl-phenyl)-N-(6-imidazol-1-yl-5-trifluoromethyl-pyridin-3-yl)-propionamide] | inhibition at 5 µM (human VR1 [1]; [3]): 100% |
| – | 16 | – | – | CC(C)(C)c1ccc(CCC(=O)Nc2ccccc2-c2ccccn2)cc1 [Cpd 108] | Emax at 12 µM (human VR1 [1]): 98%; EC50 (human VR1 [1]; agonist-induced Ca2+ increase, read-out: h EC50): 935 nM |
| 724 | – | – | 134 | O=C(CCc1ccc(C(F)(F)F)cc1)Nc1cnc(-n2cnc(Cl)c2Cl)c(C(F)(F)F)c1 [Cpd 251] | inhibition at 5 µM (human VR1 [1]; [3]): 101% |
| 62.7 | – | – | 5.9 | CC(C)(C)c1ccc(CCC(=O)Nc2ccc(-n3cnc(Cl)c3Cl)c(C(F)(F)F)c2)cc1 [Cpd 212, 3-(4-tert-Butyl-phenyl)-N-[4-(4,5-dichloro-imidazol-1-yl)-3-trifluoromethyl-phenyl]-propionamide] | inhibition at 1 µM (human VR1 [1]; inhibition of capsaicin response, 1 μM, read-out: h % I (1 μM)): 101%; inhibition at 5 µM (human VR1 [1]; [3]): 100% |
| 60 | – | – | 22.2 | CC(C)(C)c1ccc(CCC(=O)Nc2ccc(-n3cnc(Cl)c3Cl)cc2)cc1 [Cpd 211] | inhibition at 5 µM (human VR1 [1]; [3]): 99% |
| 0.283 | – | 62 | – | CC(C)(C)c1ccc(CCC(=O)Nc2ccc(-c3csnn3)cc2)cc1 [Cpd 197] | – |
